Test results as given in the NIST ThermoML archive (doi:10.1021/je700371w).

Conditions: Liquid, Closed cell (Static) method

Cc1cccnc1N [2-amino-3-methylpyridine]
Conditions | vapor or sublimation pressure [kPa]
328.7 K | 0.098
329.84 K | 0.108
336.23 K | 0.165
344.13 K | 0.271
349.18 K | 0.368
354.89 K | 0.515
357.64 K | 0.598
359.93 K | 0.69
363.55 K | 0.82
368.61 K | 1.08
374.67 K | 1.47
387.23 K | 2.67
390.85 K | 3.13
398.46 K | 4.32
405.57 K | 5.82
411.35 K | 7.34
415.63 K | 8.67
421.5 K | 10.75
425.85 K | 12.61
428.75 K | 13.95
431.43 K | 15.29
435.66 K | 17.74
439.42 K | 20.12
443.51 K | 23.01
447.94 K | 26.5
448.95 K | 27.3
450.76 K | 28.88
451.84 K | 29.81
454.19 K | 32.09
455.25 K | 33.15
456.78 K | 34.61
457.95 K | 36.08
460.15 K | 38.48
461.72 K | 40.22
469.63 K | 50.38
478.22 K | 63.87
484.84 K | 76.42
490.45 K | 87.65
495.13 K | 99.74
496.05 K | 101.44
497.73 K | 105.38
498.8 K | 108.53
499.88 K | 111.35

O [water]
Conditions | vapor or sublimation pressure [kPa]
297.95 K | 3.14
303.85 K | 4.41
309.05 K | 5.93
313.25 K | 7.44
318.75 K | 9.86
322.95 K | 12.2
329.35 K | 16.71
333.45 K | 20.18
338.55 K | 25.51
342.85 K | 30.8
348.25 K | 38.66
353.65 K | 48.42
358.35 K | 58.2
362.95 K | 69.67
368.45 K | 85.35
371.75 K | 96.28
373.25 K | 101.56
375.75 K | 111.23
